In paper PMC7423246, “A Peptide–Lectin Fusion Strategy for Developing a Glycan Probe for Use in Various Assay Formats” (Chemosensors (Basel, Switzerland), 2019):

Biological target: T1, Pseudomonas fluorescens agglutinin (PFA) (Pseudomonas fluorescens, UniProt Q3KJ04)
T1 construct: gene Pfl01_0508; 14 kDa
T1 sequence (Q3KJ04 1-133): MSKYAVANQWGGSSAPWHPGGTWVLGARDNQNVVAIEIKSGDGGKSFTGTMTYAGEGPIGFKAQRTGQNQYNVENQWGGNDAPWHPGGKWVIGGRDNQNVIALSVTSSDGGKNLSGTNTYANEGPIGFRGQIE
Assay: competitive ELISA on immobilized gp120
Conditions: inhibition of PFA binding to immobilized gp120, 400 nM PFA, 0-2000 mM mannose, room temperature not stated for this step

**Q.** How did the onset of inhibition turn out when OC[C@H]1OC(O)[C@@H](O)[C@@H](O)[C@@H]1O (stereo partly shown) [mannose] was run?
**A.** ~ 200 mM
